Experimental data: patent US20200181284A1, “EPIGENETIC INHIBITORS FOR SENSITIZING HEMATOLOGIC OR OTHER MALIGNANCIES TO GLUCOCORTICOID THERAPY” (UNIVERSITY OF SOUTHERN CALIFORNIA, priority 2017, published 2020)

Tests used:
GR-HP1γ interaction = test: Proximity ligation assay of GR and HP1γ in A549 cells; type: cell-based, human
Method: The experiments were performed following the manufacturer's instructions as previously described. Cells were grown on coverslips in 12-well plates, fixed in methanol for 2 min, and then washed twice in PBS. Firstly, the samples were saturated using the blocking solution, then different pairs of primary antibodies (HP1γ (Abcam ab10480) and GR (Santa Cruz sc-393232) in order to analyze HP1γ-GR, G9a (Sigma G6919) and HP1γ (Abcam ab56978) in order to analyze HP1γ-G9a interaction and HA-Tag (6E2) (Cell signaling #2367) and HP1γ (Abcam ab10480) in order to analyze HA- HP1γ interaction) were incubated with the fixed cells for 1 h at 37° C. […] Afterwards, the samples were mounted with Duolink II Mounting Medium containing Dapi in order to counterstain nuclei, and then analyzed on Zeiss Imager.Z1 fluorescence microscope. For each sample interactions were counted for 1000 cells using Image J software [46b].
The results as shown in FIGS. 18A-18E generally highlight that G9a and GLP methylation is required for HP1γ-G9a/GLP-GR ternary complex formation. […] The detected interactions are indicated by red dots. […] The number of interactions detected by Image J analysis is shown as the mean±SEM of three independent experiments. p-value was determined using a paired t-test. **p≤0.01. […] Whole-cell extracts were analyzed for G9a, GLP, GR, HP1γ and β-actin expression by immunoblot. […]

[1] = test system: G9a and GLP phosphorylation; test: Phosphorylation of HA-hG9a or HA-hGLP in Cos-7 cells (pan ph-T immunoprecipitation); type: cell-based, monkey; settings: 2 μM, 24 h
Method: Cos-7 or A549 cells were seeded on 10-cm dishes the day before transfection. Cells were transiently transfected (where indicated) using Lipofectamine 2000 (Invitrogen) with 5 μg each of the indicated plasmids according to the manufacturer's protocol. At 48 h after transfection, cells were treated (or not) with dex for the indicated time period, and cell extracts were prepared in RIPA buffer (50 mM Tris-HCl, pH 8, 150 mM NaCl, 1 mM EDTA, 1% NP-40 and 0.25% deoxycholate) supplemented with protease inhibitor tablets (Roche Molecular Biochemicals) and phosphatase inhibitors (1 mM NaF, 1 mM Na3VO4 and 1 mM β-glycerophosphate). Protein extracts were incubated with 1 μg of the indicated primary antibodies overnight at 4° C. with shaking. Protein A/G Plus Agarose (Santa Cruz sc-2003) beads were added and the mixture was incubated 2 hr at 4° C. The immunoprecipitates were separated on SDS-PAGE. […] In immunoprecipitation experiments 3% of the input of each sample was analyzed by immunoblot using the antibodies listed. […]

Structure (SMILES): Clc1ccc(N/N=C(\c2ccccc2)c2ccccn2)nc1 [JIB-04, 5-chloro-N-[(E)-[phenyl(pyridin-2-yl)methylidene]amino]pyridin-2-amine]
- dex-induced interaction between GR and HP1γ in PLA (GR-HP1γ interaction; A549 cells treated with dex and JIB-04): enhanced

Structure (SMILES): COc1cc2c(NC3CCN(C4CCCCC4)CC3)nc(N3CCCN(C(C)C)CC3)nc2cc1OCCCN1CCCCC1 [UNC0646]
- GR-HP1γ interaction in PLA (GR-HP1γ interaction; A549 cells, 2 μM UNC0646 24 h, 100 nM dex for the final 2 h): strongly decreased

Structure (SMILES): COc1cc2c(Nc3ccc(NC(=O)c4ccccc4)cc3)ncnc2cc1OCCCN1CCOCC1 [ZM447439, N-[4-[[6-methoxy-7-(3-morpholin-4-ylpropoxy)quinazolin-4-yl]amino]phenyl]benzamide]
- G9a and GLP phosphorylation signals [1]: decreased
